Test results published in the NIST ThermoML archive (doi:10.1021/acs.jced.7b01018).

Conditions: Liquid, Frequency=2 MHz, Single path-length method

CCO [ethanol]
Conditions	speed of sound [m/s]
323.31 K, 1410 kPa	1070.7
323.31 K, 5245 kPa	1096.8
323.31 K, 11101 kPa	1135
323.31 K, 17687 kPa	1174.5
323.31 K, 23114 kPa	1204.2
323.31 K, 30237 kPa	1241.9
323.31 K, 36831 kPa	1274.5
323.31 K, 43809 kPa	1306
323.31 K, 50864 kPa	1337.3
323.31 K, 58500 kPa	1369.4
323.31 K, 62862 kPa	1386.2
347.1 K, 1446 kPa	991.29
347.1 K, 4092 kPa	1011.8
347.1 K, 7163 kPa	1035
347.1 K, 14616 kPa	1085.6
347.1 K, 21177 kPa	1126.4
347.1 K, 28408 kPa	1168.1
347.1 K, 35022 kPa	1203.4
347.1 K, 42067 kPa	1238.6
347.1 K, 48843 kPa	1270.3
347.1 K, 54137 kPa	1294.1
347.1 K, 58348 kPa	1312.6
347.1 K, 62859 kPa	1331.6
369.38 K, 1432 kPa	914.53
369.38 K, 3923 kPa	936.5
369.38 K, 7109 kPa	963.26
369.38 K, 11382 kPa	996.24
369.38 K, 19601 kPa	1053.8
369.38 K, 27704 kPa	1104.7
369.38 K, 33060 kPa	1135.3
369.38 K, 41165 kPa	1179.1
369.38 K, 49420 kPa	1220.3
369.38 K, 54796 kPa	1246.1
369.38 K, 58367 kPa	1261.5
369.38 K, 65148 kPa	1291.2
397.28 K, 1546 kPa	811.26
397.28 K, 4302 kPa	840.39
397.28 K, 7333 kPa	870.18
397.28 K, 12482 kPa	915.79
397.28 K, 18105 kPa	960.62
397.28 K, 24432 kPa	1006.2
397.28 K, 29996 kPa	1043.3
397.28 K, 36074 kPa	1080.7
397.28 K, 44752 kPa	1129.5
397.28 K, 49805 kPa	1156
397.28 K, 58415 kPa	1198.6
397.28 K, 63790 kPa	1223.5
422.9 K, 1514 kPa	701.53
422.9 K, 5675 kPa	755.36
422.9 K, 9530 kPa	798.44
422.9 K, 15206 kPa	853.77
422.9 K, 23492 kPa	923.37
422.9 K, 31793 kPa	984.06
422.9 K, 38446 kPa	1027.7
422.9 K, 47571 kPa	1082
422.9 K, 53132 kPa	1112.2
422.9 K, 58734 kPa	1141.2
422.9 K, 63754 kPa	1166.2
